Results from patent publication US10500198B2, “Bis-benzylidine piperidone proteasome inhibitor with anticancer activity” (The Johns Hopkins University, priority 2013, dated 2019).

Columns and labels:
[1] = system: polyubiquitinated proteins, p53 and p21 in HeLa cells; experiment: Immunoblot of HeLa cell lysates; assay type: cell-based, human
Experimental: FIGS. 1 A-D show percent cell viability of RPMI-8226, ANBL6, and their respective in vitro selected bortezomib-resistant cell lines RPMI-8226-V10R and ANBL6-V10R as a function of 48 hr treatment with the indicated compounds. FIGS. 1 E-H show percent cell viability of indicated MM cell lines as a function of 48 hr treatment with the indicated compounds. […] Actin was used as a loading control. […] In FIG. 9C-E, purified 20S proteasomes were treated for 30 min with or without compounds (1 μM) prior to the addition of the specific fluorogenic substrate for chymotryptic (9C), tryptic (9D) or PGPH (9E) hydrolytic proteasome capacities. Mean±SD fluorescence associated with AMC released from the substrate was measured at 45 min. […] DMSO was added to all samples to a final concentration of 0.1% (upper panel). The effect of DMSO is highlighted by including ubiquitin—AMC (0.5 μM) hydrolysis with 2 nM UCH37 lacking DMSO (orange, bottom panel). In FIG. 9H, purified 19S RP (500 nM) in buffer was treated with corresponding compounds 30 min at 37° C. and AMC cleavage was measured with a fluorometer for 20 min. Ubal was used as a positive control.
Total cellular protein (10-20 μg) from each sample was subjected to SDS-PAGE, transferred to PVDF membranes and analyzed by Western blot. […]

[2] = target: T1, RPN13 Pru domain (Homo sapiens, UniProt Q16186); experiment: NMR and LC-MS of RA190-exposed RPN13; assay type: binding; settings: site-directed mutagenesis, NMR
T1 construct: RPN13 (1-150), which includes its Pru domain; made in house
T1 sequence (Q16186 1-150): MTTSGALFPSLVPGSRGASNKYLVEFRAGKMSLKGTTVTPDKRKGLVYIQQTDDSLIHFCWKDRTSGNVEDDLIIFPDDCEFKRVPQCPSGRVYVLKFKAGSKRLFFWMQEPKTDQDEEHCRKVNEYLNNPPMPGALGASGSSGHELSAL
Experimental: By contrast, RPN13 Pru C^60,80,121.
NMR spectra were acquired at 25° C. or 10° C. on Bruker NMR spectrometers operating at 850 or 900 MHz and equipped with cryogenically cooled probes. Processing was performed in NMRPipe^13 and the resulting spectra visualized with XEASY.^3 Protein concentrations were calculated by extinction coefficients based on amino acid composition and absorbance at 280 nm for protein dissolved in 6 M guanidine-HCl.
RPN13 Pru domain and RA190-exposed RPN13, RPN13 Pru domain, RPN13 Pru C60,80,121A, and RPN13 Pru C88A at protein concentrations of 1 μg/μL were treated with formic acid and injected onto a Nano2D-LC HPLC system (Eksigent, Dublin, Calif.) equipped with an Agilent Zorbax 300SB C8 column (3 mm ID, 10 cm length, 3.5 μm particle size). The samples were subjected to 10 min of incubation in 98% H2O:2% CH3CN, a 20 min linear gradient at 10 μL/min flow rate to 75% H2O:25% CH3CN followed by a 12 min linear gradient to 5% H2O:95% CH3CN and then a 2 min hold. Analysis was conducted by positive ionization electrospray with an LTQ-Orbitrap Velos instrument (Thermo Scientific, Waltham, Mass.) and adducts were quantified utilizing the Orbitrap detector with a resolution of 100,000 at a scan range of 400-2000 m/z.

[3] = system: TNFα-induced NFκB activation in 293 cells; experiment: NFκB/FL reporter assay; assay type: cell-based; settings: TNFα 10 ng/ml, 7 h
Experimental: 293 cells transiently transfected with either NFκB/FL (firefly luciferase reporter construct under control of an NFκB-driven promoter) or control CMV promoter-driven FL reporter construct were treated with compounds and TNFα (10 ng/ml) for 7 h. Upon the addition of luciferin, bioluminescence was measured in cell lysates using a luminometer. Results can be seen in FIG. 20.
293 cells transiently transfected with either NFκB/FL or control FL reporter genes were treated with compounds and TNFα (10 ng/ml) for 7 h. Upon the addition of luciferin, bioluminescence was measured in cell lysates using a luminometer.

[4] = Complete blood counts, blood chemistry and histopathology of healthy Balb/C mice
[5] = system: NCI-H929 cells; experiment: Active caspase-3 by FACS; assay type: cell-based, human; settings: 0.5 μM, 8 h
Experimental: NCI-H929 cells were treated with RA195 (0.5 μM) and Bz(0.5 μM) for the period of 8 h. Cells were stained for PE-conjugated Caspase-3 antibody and measured active caspase-3 by FACS.

[6] = system: PAO3C cells; experiment: Immunoblot of PAO3C pancreatic cell lysates; assay type: cell-based; settings: 1 uM
Experimental: Cell lysate was subjected to immunoblot and probed for anti UB antibody. For Bax proteins levels cells were treated for 24 hr. Actin used as […].

[7] = healthy Balb/C mice, 3 doses 40 mg/kg p.o. every third day, mean ± SD, n = 3

Cl.N[C@@H](Cc1ccccc1)C(=O)N1CC(=Cc2ccc(Cl)c(Cl)c2)C(=O)C(=Cc2ccc(Cl)c(Cl)c2)C1 [RA190, 3,5-bis(3,4-dichlorobenzylidene)-1-(S-2-amino-3-phenyl)-piperidin-4-one-HCl salt]
levels of K48-linked polyubiquitinated proteins ([1]; 4 hr): dramatically increased
site of RA190 ligation [2]: ligates to RPN13 C88
TNFα-induced NFκB activation [3]: Inhibits TNFα-Induced NFκB Activation
ALBNEW (Albumin) [4, 7]: 3.03 ± 0.05
ALPNEW (Alkaline Phosphatase) [4, 7]: 84.33 ± 7.57
ALTNEW (Alanine Aminotransferase) [4, 7]: 39.66 ± 4.04
AMYL (Amylase) [4, 7]: 743 ± 29.4
ASTNEW (Aspartate aminotransferase) [4, 7]: 62.66 ± 11.01
BA(Basophils) [4, 7]: 0.06 ± 0.07
BUNNEW (Blood Urea Nitrogen) [4, 7]: 20 ± 2.64
CA (Calcium) [4, 7]: 9 ± 0.2
CHOL (Cholesterol) [4, 7]: 114 ± 12.12
CK_NEW (Creatinine Kinase) [4, 7]: 55.66 ± 25.48
CREAT (Creatinine) [4, 7]: 0.36 ± 0.05
EO (Eosinophils) [4, 7]: 0.24 ± 0.23
GGTNEW (Gamma-Glutamyl Transferase) [4, 7]: 4.33 ± 0.57
GLU (Glucose) [4, 7]: 175.33 ± 20.5
HCT(Hematocrit) [4, 7]: 55.66 ± 1.70
HDLNEW (High Density Lipoprotein) [4, 7]: 49 ± 5.29
Hb (Hemoglobin) [4, 7]: 14.63 ± 0.15
K (Potassium) [4, 7]: 6.05 ± 0.21
LDH (lactate Dehydrogenase) [4, 7]: 160 ± 37.51
LY(Lymphocytes) [4, 7]: 4.78 ± 1.89
MCH (Mean corpuscular hemoglobin) [4, 7]: 14.10 ± 0.2
MCHC (mean corpuscular hemoglobin concentration) [4, 7]: 26.33 ± 0.55
MCV (Mean corpuscular Volume) [4, 7]: 53.60 ± 0.26
MO(Monocytes) [4, 7]: 0.34 ± 0.28
MPV (Mean Platelet Volume) [4, 7]: 5.06 ± 0.37
NE(Neutrophils) [4, 7]: 2.43 ± 0.94
Na (Sodium) [4, 7]: 147.5 ± 0.70
PLT (Platelet) [4, 7]: 533 ± 61.65
RBC (red Blood Cells) [4, 7]: 10.38 ± 0.26
RDW (Red Blood Cell Distribution Width) [4, 7]: 17.23 ± 0.30
TBIL1 (Total bilirubin) [4, 7]: 0.26 ± 0.05
TPROT (Total protein) [4, 7]: 5.16 ± 0.05
TRIG (Triglycerides) [4, 7]: 107.33 ± 22.40
UA (Uric Acid) [4, 7]: 1.5 ± 0.26
WBC(White Blood Cells) [4, 7]: 7.88 ± 3.42
blood chemistry and hematologic panels versus vehicle ([4]; three doses of 40 mg/kg p.o. every third day, euthanized on day 12): No significant difference

Cl.NCCCC[C@H](NC(=O)OCC1c2ccccc2-c2ccccc21)C(=O)N1C/C(=C\c2ccc(Cl)c(Cl)c2)C(=O)/C(=C/c2ccc(Cl)c(Cl)c2)C1 [RA195]
levels of p53 and p21 proteins ([1]; 1 μM, 12 h): elevated the levels of p53 and p21 proteins
poly-ubiquitinated (Poly UB) proteins ([1]; 1 μM, 12 h): caused the accumulation of poly-ubiqutinated (Poly UB) proteins
TNFα-induced NFκB activation [3]: inhibited TNFα-induced NFκB activation
active caspase-3 [5]: caused an increase in caspase-3 expression
Poly Ubiquitinated proteins ([6]; 12 h): causes accumulation of Poly Ubiquitinated proteins
apoptotic protein Bax ([6]; 24 hr): elevation of apoptotic protein Bax
